Test results: BindingDB's records for doi:10.1046/j.1471-4159.2000.751294.x (University of California, 2000)

Assay: Displacement of [3H]IMI from nicotinic acetylcholine receptor in Aphis craccivora (cowpea aphid) whole body membrane after 90 min by filter binding assay

| SMILES | IC50 [nM] |
| --- | --- |
| C/N=C(\NCc1ccc(Cl)nc1)N[N+](=O)[O-] | 4.4 |
| O=[N+]([O-])/N=C1\NCOCN1Cc1ccc(Cl)nc1 | 15 |
| O=[N+]([O-])/N=C1\NCOCN1Cc1cnc(Cl)s1 [DESMETHYLTHIAMETHOXAM] | 11 |
| O=[N+]([O-])/N=C1\NCCN1Cc1cnc(Cl)s1 [IMIDACLOTHIZ] | 8.2 |
